In general, EC50 refers to the concentration at which the effect is half-maximal. Broadly, the IC50 is the concentration at which inhibition is half-maximal. Low values mean inhibition by little substance, high ones a need for much substance.

These results are taken from PMC6298923, “P2Y2 and P2Y6 receptor activation elicits intracellular calcium responses in human adipose-derived mesenchymal stromal cells” (Purinergic Signalling, 2018).

Experiment [1] deals with T1, P2Y2 receptor (Homo sapiens, UniProt P41231).
T1 construct: gene P2RY2; native endogenous receptor in primary human adipose-derived mesenchymal stromal cells (female donors)
Kind of experiment: Fura-2 intracellular calcium, FlexStation, native AD-MSCs. Particulars: agonist; peak calcium response; […] °C, pH […] extracellular Ca2+; receptor assigned by antagonist. The class given is cell-based. From the text:
Fura-2 intracellular calcium, FlexStation, native AD-MSCs on P2Y2 receptor
Background: A change in cytosolic calcium serves as a functional read-out for many receptors and channels.

The target in experiment [2] is T2, P2Y6 receptor (Homo sapiens, UniProt Q15077).
T2 construct: gene P2RY6
The conditions noted are these: antagonist against […] ADP; peak magnitude; cells do not respond to UDP up to […]; […] °C, pH […].

T1 sequence (P41231 whole entry): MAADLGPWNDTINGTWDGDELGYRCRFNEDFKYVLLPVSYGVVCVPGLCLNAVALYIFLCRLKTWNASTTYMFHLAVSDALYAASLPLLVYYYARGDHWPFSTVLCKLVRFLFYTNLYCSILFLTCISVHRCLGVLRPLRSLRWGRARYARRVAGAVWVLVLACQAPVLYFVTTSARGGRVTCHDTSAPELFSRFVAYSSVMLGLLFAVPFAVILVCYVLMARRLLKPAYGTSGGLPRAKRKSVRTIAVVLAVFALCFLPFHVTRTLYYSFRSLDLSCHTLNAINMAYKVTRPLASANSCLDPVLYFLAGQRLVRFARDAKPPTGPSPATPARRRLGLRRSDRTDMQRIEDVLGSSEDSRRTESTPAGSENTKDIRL
T2 sequence (Q15077 whole entry): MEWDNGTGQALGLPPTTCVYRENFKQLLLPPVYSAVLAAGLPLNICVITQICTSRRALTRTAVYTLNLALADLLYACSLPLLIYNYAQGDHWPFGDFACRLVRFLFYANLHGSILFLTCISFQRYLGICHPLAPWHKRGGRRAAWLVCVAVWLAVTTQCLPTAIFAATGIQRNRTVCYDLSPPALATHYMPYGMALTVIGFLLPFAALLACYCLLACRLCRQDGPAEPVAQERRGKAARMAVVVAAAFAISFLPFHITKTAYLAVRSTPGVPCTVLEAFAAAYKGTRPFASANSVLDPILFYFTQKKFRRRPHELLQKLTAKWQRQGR

On to `O=c1ccn([C@@H]2O[C@H](COP(=O)(O)OP(=O)(O)OP(=O)(O)O)[C@@H](O)[C@H]2O)c(=O)[nH]1` [UTP], for which the EC50 in experiment [1] was determined as 3240 ± 2800 nM.

As to `S=C=Nc1cccc(NC(=S)NCCCCNC(=S)Nc2cccc(N=C=S)c2)c1` [MRS2578], inhibition in experiment [2] was half-maximal at 437 ± 133 nM (IC50).

As for `Nc1ncnc2c1ncn2[C@@H]1O[C@H](COP(=O)(O)OP(=O)(O)OP(=O)(O)O)[C@@H](O)[C@H]1O` [ATP], the EC50 in experiment [1] came out at 2240 ± 1100 nM.
